Laboratory results: patent publication US12486280B2, “CDK inhibitors and uses thereof” (California Institute of Technology, priority 2018, dated 2025)
Values after ≈ are worked out from the molar mass of the structure shown. Like-named read-outs stand apart in the source and are kept apart here.

Key:
[1] = tested on: drug-sensitive cell lines of Table 2 (EFM-19, MDA-MB-453, T-47D, ZR-75-1, NCI-H441, OVTOKO, NCI-H1838); assay: Cell Line Growth Retardation Assay, sensitive cohort; format: cell-based, human; settings: for IC50: Homo sapiens, geometric mean over sensitive cohort, 6 days growth, read-out: AvgSensIC50; for Ther Window: average IC50 drug-resistant group divided by average IC50 drug-sensitive group
Experimental: (§1) Cells were seeded at densities of 1,000-5,000 cells per well in 48-well tissue culture plates. After a 24 hours rest period, cells were treated with compound at 10 μM, 2 μM, 0.4 μM, 0.08 μM, 0.016 μM, and 0.0032 μM. A group of cells were treated with the vehicle in which the compound was prepared and served as a control. The cells were grown in the presence of compounds for 6 days and were counted on day 0 and day 6. A11 cell counting was performed using a Synentec Cellavista plate imager. […] Growth inhibition was calculated as a ratio of cell population doublings in the presence of compound versus the absence of compound. […] IC50 values for each compound (see Table 3; reported in μM) were calculated by fitting curves to data points from each dose-response assay using the Proc NLIN function in SAS for Windows version 9.2 (SAS Institute, Inc.).
(§2) These sensitive and resistant cohorts were interrogated for response to each compound, and IC50s were calculated for each cell line using the same technique described above. Average IC50s for the sensitive and resistant cohorts were calculated as geometric means of the group. “Therapeutic Window” for each compound was calculated by dividing the average IC50 for the drug-resistant group by the average IC50 for the drug-sensitive group.

hERG potassium channels = hERG potassium channels (Homo sapiens (Human), UniProt Q12809); assay: hERG Inhibition Assay (QPatch automated patch clamp, CHO cells); settings: percent of control current
Experimental: Effects of compounds on hERG potassium channel conductance was assessed using the automated patch clamp method QPatch^HTX. Compounds were prepared at 10 mM stocks. CHO cells stably expressing hERG potassium channels were used for this assay. Cells were cultured in a humidified and air-controlled 5% CO2) incubator at 37° C. Compound stocks and the positive control Amitriptyline were dissolved in 100% DMSO to make various solution concentrations. These solutions were further diluted into extracellular solution to achieve final concentrations for testing. The final DMSO concentration in extracellular solution was 0.30%. The hERG QPatch^HTX assay was conducted at room temperature.
The following voltage command protocol was used: • From the holding potential of −80 mV, the voltage was first stepped to −50 mV for 80 ms for leak subtraction, and then stepped to +20 mV for 4,800 ms to open hERG channels. • After which, the voltage was stepped back down to −50 mV for 5,000 ms, causing a “rebound” or tail current, which was measured and collected for data analysis. • Finally, the voltage was stepped back to the holding potential of −80 mV for 3,100 ms.
For each experiment, three additions of 5 μL of the vehicle were applied, followed by 30 runs of the voltage command protocol for a baseline period. Then, the ascending doses of each compound were added with three repetitions (5 μL of compound each time).

[2] = Caco-2 Assay (Papp A to B); settings: human, Caco-2, pH 7.4
Experimental: The degree of bi-directional human intestinal permeability for compounds was estimated using a Caco-2 cell permeability assay. Caco-2 cells were seeded onto polyethylene membranes in 96-well plates. The growth medium was refreshed every 4 to 5 days until cells formed a confluent cell monolayer. HBSS with 10 mM HEPES at pH 7.4 was used as the transport buffer. Compounds were tested at 2 μM bi-directionally in duplicate. Digoxin, nadolol and metoprolol were included as standards. Digoxin was tested at 10 μM bi-directionally in duplicate, while nadolol and metoprolol were tested at 2 μM in the A to B direction in duplicate. The final DMSO concentration was adjusted to less than 1% for all experiments. The plate was incubated for 2 hours in a CO2 incubator at 37° C., with 5% CO2 at saturated humidity. After incubation, all wells were mixed with acetonitrile containing an internal standard, and the plate was centrifuged at 4,000 rpm for 10 minutes. 100 μL supernatant was collected from each well and diluted with 100 μL distilled water for LC/MS/MS analysis. Concentrations of test and control compounds in starting solution, donor solution, and receiver solution were quantified by LC/MS/MS, using peak area ratio of analyte/internal standard. The apparent permeability coefficient Papp (cm/s) was calculated using the equation: Papp=(dCr/dt)×Vr/(A×C0) Where dCr/dt is the cumulative concentration of compound in the receiver chamber as a function of time (μM/s); Vr is the solution volume in the receiver chamber (0.075 mL on the apical side, 0.25 mL on the basolateral side); A is the surface area for the transport, which is 0.0804 cm^2 for the area of the monolayer; C0 is the initial concentration in the donor chamber (μM).

[3] = tested on: drug-resistant cell lines of Table 2 (NCI-H1437, OV207, HCC1806, NCI-H2172); assay: Cell Line Growth Retardation Assay, resistant cohort; format: cell-based, human; settings: Homo sapiens, […], geometric mean over resistant cohort; 6 days growth; read-out: AvgResIC50
Experimental: as §1, §2

CDK4 = CDK4 (Homo sapiens (Human), UniProt P11802); assay: Cdk4 and 6 Enzymatic Inhibition Assay (radiometric 33PanQinase, Ki determination); format: biochemical
Experimental: (§3) 10 distinct concentrations were prepared, with a dilution endpoint of 6×10^−9 M in 100% DMSO. 100% DMSO was used as a control. 10 μL from each of the serial dilutions were aliquoted into separate wells of a 96-well plate and 90 μL of water were added to each of those wells. The plate was shaken thoroughly, and 5 μL from each of the plate's wells were transferred into wells of the assay plate. The final volume of wells in the assay plate was 50 μL. A11 compounds were tested at 10 assay concentrations in the range from 2×10^−6 M to 6×10^−11 M. The final DMSO concentration in the wells of the assay plate was 1% in all cases.
(§4) A radiometric protein kinase assay (33PanQinase® Activity Assay) was used for measuring the kinase activity of six protein kinases. A11 kinase assays were performed in 96-well FlashPlates™ from PerkinElmer (Boston, MA, USA). The assay for all protein kinases contained 70 mM HEPES-NaOH pH 7.5, 3 mM MgCl2, 3 mM MnCl2, 3 μM Na-orthovanadate, 1.2 mM DTT, 50 μg/mL PEG20000, ATP [γ-33P]-ATP (approx. 9×1005 cpm per well), protein kinase and substrate. The reaction cocktails were incubated at 30° C. for 60 minutes. The reaction was stopped with 50 μL of 2% (v/v) H3PO4, and plates were aspirated and washed two times with 200 μL 0.9% (w/v) NaCl. Incorporation of ^33Pi was determined with a microplate scintillation counter (Microbeta, Wallac).

CDK6 = CDK6 (Homo sapiens (Human), UniProt Q00534); assay: as above; format: biochemical
Experimental: as §3, §4

[4] = tested on: CYP isozymes (IC50s averaged over the isozymes); assay: CYP Enzymatic Inhibition Assay in human liver microsomes
[5] = Compound Solubility Assay (kinetic solubility); format: physicochemical
Experimental: The relative kinetic solubility of each compound was determined at both low (1.2) and neutral (7.4) pH. Compounds were prepared at 10 mM stocks. […] Compounds were allowed to shake at room temperature for 24 hours in 50 mM phosphate buffer pH 7.4, or in SGF buffer pH 1.2 at 37° C. for 24 hours.

[6] = Measurement of Compound Metabolic Stability in hepatocytes
Experimental: The metabolic stability of compounds was determined in hepatocytes from mice and rats. Compounds were diluted to 5 μM in Williams' Medium E from 10 mM stock solutions. 10 μL of each compound was aliquoted into a well of a 96-well plate and reactions were started by aliquoting 40 μL of a 625,000 cells/mL suspension into each well. The plate was incubated at 37° C. with 5% CO2. At each corresponding time point, the reaction was stopped by quenching with ACN containing internal standards (IS) at a 1:3. Plates were shaken at 500 rpm for 10 min, and then centrifuged at 3,220×g for 20 minutes. Supernatants were transferred to another 96-well plate containing a dilution solution. Supernatants were analyzed by LC/MS/MS. Compound half-life was estimated using the following equation:

[7] = 50 mM phosphate buffer, pH 7.4, aqueous buffer, kinetic from dmso stock, read-out: KS7
[8] = simulated gastric fluid, kinetic from dmso stock, kinetic solubility, SGF buffer pH 1.2, 37° C., 24 hours, read-out: KS1

Sequence of CDK4 (P11802 whole entry): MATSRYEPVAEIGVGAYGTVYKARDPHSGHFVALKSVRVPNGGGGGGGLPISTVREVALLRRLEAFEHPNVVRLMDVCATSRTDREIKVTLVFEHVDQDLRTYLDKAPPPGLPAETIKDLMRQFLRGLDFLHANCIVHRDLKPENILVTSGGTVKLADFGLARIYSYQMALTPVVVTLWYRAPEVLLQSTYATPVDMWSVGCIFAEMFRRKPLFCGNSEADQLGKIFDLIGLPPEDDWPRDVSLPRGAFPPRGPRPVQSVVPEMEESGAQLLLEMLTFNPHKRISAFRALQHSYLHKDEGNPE
Sequence of CDK4 (P24385 whole entry partner): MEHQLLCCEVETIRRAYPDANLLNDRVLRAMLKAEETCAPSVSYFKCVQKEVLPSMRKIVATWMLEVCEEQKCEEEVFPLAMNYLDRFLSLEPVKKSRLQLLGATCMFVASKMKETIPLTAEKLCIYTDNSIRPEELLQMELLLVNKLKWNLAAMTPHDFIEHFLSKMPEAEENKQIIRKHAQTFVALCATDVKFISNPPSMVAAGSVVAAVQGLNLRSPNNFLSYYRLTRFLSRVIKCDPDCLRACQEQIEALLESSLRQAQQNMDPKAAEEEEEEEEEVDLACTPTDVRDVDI
Sequence of hERG potassium channels (Q12809 whole entry): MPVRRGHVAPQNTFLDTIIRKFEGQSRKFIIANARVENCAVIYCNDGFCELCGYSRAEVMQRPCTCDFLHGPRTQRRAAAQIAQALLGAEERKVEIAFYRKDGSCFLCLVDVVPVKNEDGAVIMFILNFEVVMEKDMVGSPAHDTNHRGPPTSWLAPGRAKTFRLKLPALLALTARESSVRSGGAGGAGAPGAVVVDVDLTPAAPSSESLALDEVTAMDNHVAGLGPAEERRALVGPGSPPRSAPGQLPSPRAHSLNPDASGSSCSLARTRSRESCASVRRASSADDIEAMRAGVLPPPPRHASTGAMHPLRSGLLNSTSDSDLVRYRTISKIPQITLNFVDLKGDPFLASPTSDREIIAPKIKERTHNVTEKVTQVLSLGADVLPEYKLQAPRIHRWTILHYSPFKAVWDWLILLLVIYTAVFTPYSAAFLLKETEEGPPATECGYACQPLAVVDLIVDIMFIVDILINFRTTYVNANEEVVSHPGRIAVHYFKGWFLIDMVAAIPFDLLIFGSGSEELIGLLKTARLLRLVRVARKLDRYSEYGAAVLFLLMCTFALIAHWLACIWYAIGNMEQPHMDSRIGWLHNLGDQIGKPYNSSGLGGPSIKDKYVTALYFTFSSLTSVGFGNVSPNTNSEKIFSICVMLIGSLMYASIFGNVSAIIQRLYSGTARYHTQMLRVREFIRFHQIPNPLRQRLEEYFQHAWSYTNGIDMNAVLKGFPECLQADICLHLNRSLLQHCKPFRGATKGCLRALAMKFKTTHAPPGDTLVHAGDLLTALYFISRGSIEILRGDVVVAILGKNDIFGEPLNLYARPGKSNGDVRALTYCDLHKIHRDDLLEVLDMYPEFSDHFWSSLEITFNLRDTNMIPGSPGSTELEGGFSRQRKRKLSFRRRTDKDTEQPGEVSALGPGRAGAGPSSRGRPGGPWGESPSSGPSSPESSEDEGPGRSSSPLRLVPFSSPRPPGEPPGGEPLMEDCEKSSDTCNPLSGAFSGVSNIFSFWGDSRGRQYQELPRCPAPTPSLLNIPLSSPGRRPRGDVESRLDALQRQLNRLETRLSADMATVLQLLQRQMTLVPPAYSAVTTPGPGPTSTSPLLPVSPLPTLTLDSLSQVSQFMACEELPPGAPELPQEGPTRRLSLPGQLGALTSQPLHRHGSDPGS
Sequence of CDK6 (Q00534 whole entry): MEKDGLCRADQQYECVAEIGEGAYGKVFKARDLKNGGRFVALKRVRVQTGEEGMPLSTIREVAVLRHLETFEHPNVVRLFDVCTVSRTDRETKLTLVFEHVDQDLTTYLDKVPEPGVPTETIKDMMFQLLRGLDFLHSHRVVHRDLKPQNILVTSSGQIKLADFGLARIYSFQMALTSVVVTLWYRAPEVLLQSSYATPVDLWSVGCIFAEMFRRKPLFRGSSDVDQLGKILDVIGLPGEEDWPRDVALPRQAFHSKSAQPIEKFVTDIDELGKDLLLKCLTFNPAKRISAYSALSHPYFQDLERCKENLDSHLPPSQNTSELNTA
Sequence of CDK6 (P24385 whole entry partner): as the sequence (P24385 whole entry partner) above

Row | Compound | IC50 [1] [µM] | Ther Window [1] | hERG (hERG potassium channels) [%] | Papp A→B at 2 h, 2 μM [2] [nm/s] | IC50 [3] [µM] | Ki (CDK4) [µM] | Ki (CDK6) [µM] | IC50 at 10 min [4] [µM] | solubility kinetic at 24 h [5, 7] [µM] | solubility kinetic at 24 h [5, 8] [µM] | half-life at 1 μM [6] [min] | solubility kinetic at 24 h ([5]; kinetic solubility, SGF buffer pH 1.2, 37° C., 24 hours, read-out: KS1) [µM]
1 | Cc1nc2c(F)cc(-c3nc(Nc4ccc(CN5CCO[C@]6(CCN(C)C6)C5)cn4)ncc3F)cc2n1C(C)C [Compound A38] | 0.22 | 3.81 | 10.65 | 1.7 | 0.84 | 0.00147 | 0.00723 | 80.2 | 40.5 (≈ 22.2 µg/mL) | 200 (≈ 110 µg/mL) | 38.2 | 
2 | Cc1nc2c(F)cc(-c3nc(Nc4ccc(CN5CCO[C@](C)(CCN6CC(F)(F)C6)C5)cn4)ncc3F)cc2n1C(C)C [Compound A12, (R)—N-(5-((2-(2-(3,3-difluoroazetidin-1-yl)ethyl)-2-methylmorpholino)methyl)pyridin-2-yl)-5-fluoro-4-(4-fluoro-1-isopropyl-2-methyl-1H-benzo[d]imidazol-6-yl)pyrimidin-2-amine] | 0.11 | 8.17 | 19.54 | 26.2 | 0.86 | 0.00218 | 0.0128 | 21.6 | 1 (≈ 0.613 µg/mL) |  | 13.1 | 200.00 (≈ 123 µg/mL)
3 | CC(=O)N(C)CC[C@]1(C)CN(Cc2ccc(Nc3ncc(F)c(-c4cc(F)c5nc(C)n(C(C)C)c5c4)n3)nc2)CCO1 [Compound A8, (R)—N-(2-(4-((6-((5-fluoro-4-(4-fluoro-1-isopropyl-2-methyl-1H-benzo[d]imidazol-6-yl)pyrimidin-2-yl)amino)pyridin-3-yl)methyl)-2-methylmorpholin-2-yl)ethyl)-N-methylacetamide] | 0.17 | 5.64 | 11.87 | 23.5 | 0.97 | 0.00176 | 0.0113 | 30.9 | 128 (≈ 76.1 µg/mL) | 200 (≈ 119 µg/mL) | 4.24 | 
4 | Cc1nc2c(F)cc(-c3nc(Nc4ccc(CN5CCO[C@](C)(CCN6CC[C@@H](F)C6)C5)cn4)ncc3F)cc2n1C(C)C [Compound A15, 5-fluoro-4-(4-fluoro-1-isopropyl-2-methyl-1H-benzo[d]imidazol-6-yl)-N-(5-(((R)-2-(2-((R)-3-fluoropyrrolidin-1-yl)ethyl)-2-methylmorpholino)methyl)pyridin-2-yl)pyrimidin-2-amine] | 0.08 | 7.07 | 17.46 | 8 | 0.59 | 0.00078 | 0.00404 | 17.1 |  |  | 19.3 | 
5 | Cc1nc2c(F)cc(-c3nc(Nc4ccc(CN5CCO[C@](C)(CCN6CCC6)C5)cn4)ncc3F)cc2n1C(C)C [Compound A17, (R)—N-(5-((2-(2-(azetidin-1-yl)ethyl)-2-methylmorpholino)methyl)pyridin-2-yl)-5-fluoro-4-(4-fluoro-1-isopropyl-2-methyl-1H-benzo[d]imidazol-6-yl)pyrimidin-2-amine] | 0.05 | 15.41 | 20.47 | 0.2 | 0.85 | 0.00103 | 0.00525 | 51.7 |  |  | 217 | 
6 | Cc1nc2c(F)cc(-c3nc(Nc4ccc(CN5CCO[C@](C)(CCN(C)CC(F)F)C5)cn4)ncc3F)cc2n1C(C)C [Compound A29, (R)—N-(5-((2-(2-((2,2-difluoroethyl)(methyl)amino)ethyl)-2-methylmorpholino)methyl)pyridin-2-yl)-5-fluoro-4-(4-fluoro-1-isopropyl-2-methyl-1H-benzo[d]imidazol-6-yl)pyrimidin-2-amine] | 0.17 | 5.36 | 25.45 | 19.5 | 0.89 | 0.0018 | 0.0105 | 16.4 |  |  | 5.84 | 
7 | Cc1nc2c(F)cc(-c3nc(Nc4ccc(CN5CCO[C@](C)(CCN6CCCC6)C5)cn4)ncc3F)cc2n1C(C)C [Compound A16, (R)-5-fluoro-4-(4-fluoro-1-isopropyl-2-methyl-1H-benzo[d]imidazol-6-yl)-N-(5-((2-methyl-2-(2-(pyrrolidin-1-yl)ethyl)morpholino)methyl)pyridin-2-yl)pyrimidin-2-amine] | 0.06 | 15.20 | 18.09 | 0.1 | 0.87 | 0.00142 | 0.00581 | 47.9 |  |  | 217 | 
8 | Cc1nc2c(F)cc(-c3nc(Nc4ccc(CN5CCO[C@](C)(CCN6CC[C@H](F)C6)C5)cn4)ncc3F)cc2n1C(C)C [Compound A14, 5-fluoro-4-(4-fluoro-1-isopropyl-2-methyl-1H-benzo[d]imidazol-6-yl)-N-(5-(((R)-2-(2-((S)-3-fluoropyrrolidin-1-yl)ethyl)-2-methylmorpholino)methyl)pyridin-2-yl)pyrimidin-2-amine] | 0.08 | 11.53 | 23.34 | 6.9 | 0.98 | 0.00092 | 0.00499 | 16.9 |  |  | 10.7 | 
9 | CC[C@@]1(CCN(C)C)CN(Cc2ccc(Nc3ncc(F)c(-c4cc(F)c5nc(C)n(C(C)C)c5c4)n3)nc2)CCO1 [Compound A20, (R)—N-(5-((2-(2-(dimethylamino)ethyl)-2-ethylmorpholino)methyl)pyridin-2-yl)-5-fluoro-4-(4-fluoro-1-isopropyl-2-methyl-1H-benzo[d]imidazol-6-yl)pyrimidin-2-amine] | 0.08 | 12.21 | 32.36 | 0.7 | 1 | 0.00055 | 0.00369 | 24.8 |  |  | 101 | 
